The source of these data is patent publication US8263823B2, “Immunocompetent xenograft model” (Adimmu Institute Inc., priority 2008, dated 2012).

Data set [1] deals with CD8+ 2C transgenic T-cells. Conditions: chemotherapy (dacarbazine) alone, compared to the control mice.
Procedure: Lymph node (LN) cells and splenocytes (SP) were isolated from 2C TCR Tg mice. […] Cells were isolated from the inguinal LNs (DLNs), SP, or tumors at the time indicated. CFSE dilution was evaluated as described in Yu, at Id.
In order to identify the effects of the chemotherapy on CD8+ T-cell priming, 5×10^5 B16-SIY melanoma cells were injected s.c. in the B6 mice. On day 17, 2×10^6 CFSE labeled naïve CD8+ 2C transgenic T-cells were adoptively transferred into the B16-SIY tumor bearing mice. The mice were treated locally with 20 Gy of radiation on day 0 following the transfer. 200 mg/kg dacarbazine i.p. was given two days after the adoptive transfer, and DLN and SP were harvested on day 21 to determine the CFSE dilution in the DLN and SP.
Another data set has as its system TUBO cells. The data set can be described thus: TUBO tumor size after aHER2, DOXORUBICIN or their combination. The format is in vivo, mouse. Conditions: DOXORUBICIN alone (5 or 15 mg/kg), intratumoral. How it is done: (§1) Cultured cancer cells were trypsinized, washed with media, and injected s.c. on the back. Tumor size was determined at 3-4 day intervals. Tumor volumes were measured along three orthogonal axes (a, b, and c) and calculated as tumor volume=abc/2.
Combination therapy of aHER2 and a chemotherapeutic could show the same reduction in efficacy due to the immunosuppressive action of the chemotherapeutic. To show this, 1×10^6 TUBO cells were injected into Balb/c mice. After the tumor was well-established, the mice were separated into groups subject to the following groups of treatments: (i) 80 μg mIgG only, (ii) 80 μg aHER2 only, (iii) 5 mg/kg DOXORUBICIN only, (iv) 15 mg/kg DOXORUBICIN only, (v) a combination of 80 μg aHER2 and 5 mg/kg DOXORUBICIN, and (vi) a combination of 80 μg aHER2 and 15 mg/kg DOXORUBICIN. The antibodies and chemotherapeutic were administered intratumorally, the time injections and tumor size measurements were taken at 19 and 26 days after tumor injection.

In data set [2] the test system is 4T1 tumor cells. Put plainly: 4T1 breast tumor model, primary tumor growth, radiation therapy with or without paclitaxel. It is filed as in vivo, mouse. The following applies: paclitaxel 20 mg/kg i.p. on days 7 and 14 after radiation therapy (15 Gy x3), Balb/c mice. How it is done:
The mice were irradiated using an x-ray generator (PCM 1000; Pantak) at the doses indicated by each experiment. Each mouse was protected with a lead cover with only tumor exposed, allowing local irradiation. For systemic chemotherapy, tumor-bearing mice were injected i.p. with 20 mg/kg paclitaxel (Ameristat Pharmaceuticals) for 4T1 bearing mice and 200 mg/kg dacarbazine (Bedford Laboratories) for B16 bearing mice.
as §1
A 4T1 breast tumor model was used to show the results of the test on a different type of tumor. 1×10^5 4T1 tumor cells were injected and allowed to establish for 14 days. Balb/c control mice receive the breast cancer cells and no radiation, and other mice receive radiation therapy only, chemotherapy only, or a combination of radiation therapy followed by chemotherapy. The mice receiving radiation received a dose of 15 Gy on each of days 14, 15, and 16. On days 7 and 14 following radiation therapy, the mice receiving a combination of radiation therapy and chemotherapy received 20 mg/kg paclitaxel i.p.

In data set [3] the test system is 4T1 tumor cells. Put plainly: 4T1 lung metastases colonogenic assay, radiation therapy with or without paclitaxel. It is filed as in vivo, mouse. An excerpt: For surgical excision of primary 4T1 and B16-CCR7 tumors, mice were anesthetized, and tumors were resected with sterilized instruments. A colonogenic assay was used to evaluate metastases in 4T1 and B16-CCR7 tumors as described in B. A. Pulaski, S. Ostrand-Rosenberg, Curr Protoc Immunol Chapter 20, Unit 20 2 (May, 2001), incorporated herein by reference in its entirety. Lungs for 4T1 tumor or DLN for B16-CCR7 were collected, chopped and dissociated in DMEM supplemented with 10% FCS containing 1.5 mg/ml collagenase type D (Sigma-Aldrich) for 20 min in 37° C. shaking incubator. Single cell suspensions were plated at various dilutions in media supplemented with 10% FCS and selection drug. 4T1 is resistant to 6-thioguanine ([…]) and B16-CCR7 is resistant to G418 (0.7 mg/ml). Individual colonies representing micrometastases were counted after 5-10 days.
1×10^5 4T1 tumor cells were injected s.c. to the Balb/c mice, and the mice received 15 Gy of radiation on each days 12, 13, and 14.

`CN(C)/N=N/c1[nH]cnc1C(N)=O` [dacarbazine]: the “proliferation of cytotoxic lymphocytes (CTL)” value in data set [1] is reported as “did not elicit proliferation of cytotoxic lymphocytes (CTL)”.
Take `COc1cccc2c1C(=O)c1c(O)c3c(c(O)c1C2=O)C[C@@](O)(C(=O)CO)C[C@@H]3O[C@H]1C[C@H](N)[C@H](O)[C@H](C)O1` [DOXORUBICIN]: the tumor burden entry in the data set on TUBO cells is listed as “reduces tumor burden”.
With `CC(=O)O[C@H]1C(=O)[C@@]2(C)[C@H]([C@H](OC(=O)c3ccccc3)[C@]3(O)C[C@H](OC(=O)[C@H](O)[C@@H](NC(=O)c4ccccc4)c4ccccc4)C(C)=C1C3(C)C)[C@]1(OC(C)=O)CO[C@@H]1C[C@@H]2O` [paclitaxel], the tumor regression entry with 4T1 tumor cells [2] was “significantly hindered melanoma tumor regression and promoted tumor outgrowth”. The “degree of metastases in the lungs” value in the data set with 4T1 tumor cells [3] (chemotherapy (paclitaxel) alone, compared to the control mice) is given as “little effect on the degree of metastases in the lungs”. The “increase in tumor colonies in the lungs” value in the data set on 4T1 tumor cells [3] (paclitaxel 20 mg/kg i.p. on days 7 and 14 after radiation therapy (15 Gy x3), versus radiation therapy alone) is given as 100 fold.
